What follows are molecules tested against T1, ATM (Homo sapiens, UniProt Q13315) (assay: ATM inhibition test (phosphorylation of Chk2 generated by ionizing radiation, AlphaScreen SureFire)). Conditions: phosphorylated Chk2 in NCI-H460 cells, ionizing radiation 8Gy, 1 hour after test compound treatment; read-out: ATM inhibitory activity.
T1 construct: detecting phosphorylation of Chk2 in a human non-small cell lung cancer cell line NCI-H460 (ATCC company); host or cells: NCI-H460 human non-small cell lung cancer cells
T1 sequence (Q13315 whole entry): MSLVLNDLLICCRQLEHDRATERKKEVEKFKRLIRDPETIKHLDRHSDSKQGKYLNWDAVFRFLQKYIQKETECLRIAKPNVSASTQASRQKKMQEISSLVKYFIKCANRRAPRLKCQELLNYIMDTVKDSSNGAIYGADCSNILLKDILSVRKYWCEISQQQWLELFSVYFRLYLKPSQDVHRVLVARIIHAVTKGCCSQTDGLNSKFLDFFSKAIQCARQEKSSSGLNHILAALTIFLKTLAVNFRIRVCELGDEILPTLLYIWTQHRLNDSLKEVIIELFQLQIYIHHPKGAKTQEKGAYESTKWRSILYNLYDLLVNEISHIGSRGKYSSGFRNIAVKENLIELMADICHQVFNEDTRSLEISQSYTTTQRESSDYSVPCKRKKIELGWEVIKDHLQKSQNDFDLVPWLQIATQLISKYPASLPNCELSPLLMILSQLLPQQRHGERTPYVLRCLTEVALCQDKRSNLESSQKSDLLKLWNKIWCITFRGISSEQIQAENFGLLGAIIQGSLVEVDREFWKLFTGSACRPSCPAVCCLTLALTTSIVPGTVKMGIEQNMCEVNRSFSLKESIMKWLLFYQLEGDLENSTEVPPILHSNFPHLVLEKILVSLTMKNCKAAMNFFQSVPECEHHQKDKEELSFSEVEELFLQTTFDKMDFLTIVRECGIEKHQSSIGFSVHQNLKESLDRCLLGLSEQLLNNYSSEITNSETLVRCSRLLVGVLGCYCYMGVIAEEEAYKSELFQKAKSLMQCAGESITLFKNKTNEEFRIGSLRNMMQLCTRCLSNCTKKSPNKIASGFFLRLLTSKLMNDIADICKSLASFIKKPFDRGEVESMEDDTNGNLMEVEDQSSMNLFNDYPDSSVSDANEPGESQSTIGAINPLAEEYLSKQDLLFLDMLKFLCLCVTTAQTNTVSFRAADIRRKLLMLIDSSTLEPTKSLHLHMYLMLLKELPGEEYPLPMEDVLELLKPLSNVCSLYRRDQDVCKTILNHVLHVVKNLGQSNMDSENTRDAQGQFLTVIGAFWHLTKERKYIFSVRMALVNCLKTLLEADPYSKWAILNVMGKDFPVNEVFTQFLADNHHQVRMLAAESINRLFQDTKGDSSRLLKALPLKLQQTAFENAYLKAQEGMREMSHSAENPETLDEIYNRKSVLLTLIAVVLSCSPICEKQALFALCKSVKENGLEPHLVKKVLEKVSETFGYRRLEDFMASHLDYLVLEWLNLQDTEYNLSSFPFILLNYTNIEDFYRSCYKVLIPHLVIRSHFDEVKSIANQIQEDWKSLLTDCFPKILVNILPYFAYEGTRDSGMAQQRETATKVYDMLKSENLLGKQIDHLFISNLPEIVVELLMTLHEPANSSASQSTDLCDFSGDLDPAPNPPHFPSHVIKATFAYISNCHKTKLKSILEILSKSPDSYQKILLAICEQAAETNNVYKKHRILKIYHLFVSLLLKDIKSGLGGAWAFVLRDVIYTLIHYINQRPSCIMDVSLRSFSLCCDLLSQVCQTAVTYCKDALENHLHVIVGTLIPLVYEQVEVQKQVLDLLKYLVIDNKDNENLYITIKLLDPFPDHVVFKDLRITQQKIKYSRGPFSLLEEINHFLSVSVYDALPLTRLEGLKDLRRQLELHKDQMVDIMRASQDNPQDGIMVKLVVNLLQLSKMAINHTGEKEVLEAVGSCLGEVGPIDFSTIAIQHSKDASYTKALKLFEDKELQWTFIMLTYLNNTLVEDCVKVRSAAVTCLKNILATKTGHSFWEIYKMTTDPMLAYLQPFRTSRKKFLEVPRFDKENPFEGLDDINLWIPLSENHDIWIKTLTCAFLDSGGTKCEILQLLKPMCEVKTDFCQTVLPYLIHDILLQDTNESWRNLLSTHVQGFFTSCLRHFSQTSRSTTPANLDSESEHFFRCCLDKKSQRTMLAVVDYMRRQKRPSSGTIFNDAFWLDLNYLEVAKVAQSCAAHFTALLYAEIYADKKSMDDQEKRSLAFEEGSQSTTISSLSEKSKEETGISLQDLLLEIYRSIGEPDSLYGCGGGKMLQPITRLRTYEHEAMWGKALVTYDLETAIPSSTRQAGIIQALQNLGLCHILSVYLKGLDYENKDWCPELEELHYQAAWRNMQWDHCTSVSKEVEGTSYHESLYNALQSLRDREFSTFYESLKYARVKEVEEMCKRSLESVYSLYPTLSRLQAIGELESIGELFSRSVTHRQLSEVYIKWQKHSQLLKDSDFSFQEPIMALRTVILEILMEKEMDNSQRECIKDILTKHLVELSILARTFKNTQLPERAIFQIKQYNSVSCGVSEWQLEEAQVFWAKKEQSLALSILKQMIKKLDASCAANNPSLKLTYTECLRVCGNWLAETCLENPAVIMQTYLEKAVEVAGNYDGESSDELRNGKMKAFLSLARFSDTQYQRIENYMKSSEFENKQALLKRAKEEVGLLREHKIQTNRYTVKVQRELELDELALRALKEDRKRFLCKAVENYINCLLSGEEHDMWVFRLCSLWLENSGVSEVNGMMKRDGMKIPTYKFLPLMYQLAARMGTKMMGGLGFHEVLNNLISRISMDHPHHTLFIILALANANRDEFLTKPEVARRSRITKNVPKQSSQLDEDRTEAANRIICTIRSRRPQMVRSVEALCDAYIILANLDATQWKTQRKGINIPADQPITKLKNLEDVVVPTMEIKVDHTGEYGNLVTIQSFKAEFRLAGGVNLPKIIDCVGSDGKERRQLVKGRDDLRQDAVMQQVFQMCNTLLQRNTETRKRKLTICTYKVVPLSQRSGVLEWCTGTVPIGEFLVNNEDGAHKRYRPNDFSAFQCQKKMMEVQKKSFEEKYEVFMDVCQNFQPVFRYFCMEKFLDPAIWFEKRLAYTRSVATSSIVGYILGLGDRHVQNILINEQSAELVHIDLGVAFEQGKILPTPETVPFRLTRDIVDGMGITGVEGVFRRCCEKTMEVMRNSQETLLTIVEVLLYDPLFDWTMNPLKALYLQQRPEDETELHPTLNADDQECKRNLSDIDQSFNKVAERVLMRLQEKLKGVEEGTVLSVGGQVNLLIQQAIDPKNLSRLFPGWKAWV
Type: cell-based
In short: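 Phosphorylated Chk2 read by AlphaScreen SureFire in human non-small cell lung cancer NCI-H460 cells, 1 hour after 8Gy ionizing radiation at 37° C. Compound added 1 hour before irradiation. Percent inhibition normalised between irradiated and non-irradiated drug-untreated signals.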
`O=c1cc(N2CCOCC2)cc(-c2nccc3c2Oc2ccc(NCc4cccc(Cl)n4)cc2C3)[nH]1` [Example 2-41-8, 6-(7-(((6-Chloropyridin-2-yl)methlyl)anlino)-5H-chromeno [2,3-c]pyridin-1-yl)-4-morpholino pyridin-2(1H)-one] was tested, and the IC50 was 100 to 500 nM.
With `CCCC(Nc1ccc2c(c1)Cc1cccc(-c3cc(N4CCOCC4)cc(=O)[nH]3)c1O2)c1cncc(OC)c1` (stereo not shown) [Example 2-14-17, 6-(7-((1-(5-Methoxypyridin-3-yl)butyl)amino)-9H-xanthen-4-yl)-4-morpholino pyridin-2(1H)-one] the IC50 was 100 to 500 nM.
With `Cc1ccc(C(Nc2ccc3c(c2)Sc2cccc(-c4cc(N5CCOCC5)cc(=O)[nH]4)c2S3)C2CNCCO2)nc1` (single isomer, unassigned) [Example 1-55-2, 6-(7-(((5-methylpyridin-2-yl)(morpholin-2-yl)methyl)amino)thianthren-1-yl)-4-morpholinopyridin-2(1H)-one] the IC50 was under 100 nM.
`CCCCN1CCCC(Nc2ccc3c(c2)Cc2cccc(-c4cc(N5CCOCC5)cc(=O)[nH]4)c2O3)C1` (stereo not shown) [Example 2-19-4, 6-(7-((1-Butylpiperidin-3-yl)amino)-9H-xanthen-4-yl)-4-morpholinopyridin-2(1H)-one] showed an IC50 of 100 to 500 nM.
`CC[C@H](N)C(CC(C)C)Nc1ccc2c(c1)Sc1cccc(-c3cc(N4CCOCC4)cc(=O)[nH]3)c1S2` (stereo partly shown) [Example 1-20-7] showed an IC50 of 500 to 2000 nM.
In the case of `O=c1cc(N2CCOCC2)cc(-c2cccc3c2Oc2ccc(NC4CCN(Cc5ccc(OC6CCOCC6)nc5)CC4)cc2C3)[nH]1` [Example 2-28-21, 4-Morpholino-6-(7-((1-((6-((tetrahydro-2H-pyran-4-yl)oxy)pyridin-3-yl)methyl)piperidin-4-yl)amino)-9H-xanthen-4-yl)pyridin-2(1H)-one], the IC50 is reported as 100 to 500 nM.
For `CC1CC(Nc2ccc3c(c2)Cc2cccc(-c4cc(N5CCOCC5)cc(=O)[nH]4)c2O3)CCN1CCc1ccccc1` (stereo not shown) [Example 2-19-1, 6-(7-((2-Methyl-1-phenethylpiperidin-4-yl)amino)-9H-xanthen-4-yl)-4-morpholinopyridin-2(1H)-one], the IC50 was 100 to 500 nM.
With `CN1CCC(Nc2ccc3c(c2)Cc2cccc(-c4cc(N5CCOCC5)cc(=O)[nH]4)c2S3)CC1` [Example 3-8-13, 6-(7-((1-Methylpiperidin-4-yl)amino)-9H-thioxanthen-4-yl)-4-morpholino pyridin-2 (1H)-one] the IC50 was 100 to 500 nM.
In the case of `CC(CN1CCC1)Nc1ccc2c(c1)Sc1cccc(-c3cc(N4CCOCC4)cc(=O)[nH]3)c1S2` (stereo not shown) [Example 1-43-1, 6-(7-((1-(azetidin-1-yl)propan-2-yl)amino)thianthren-1-yl)-4-morpholinopyridin-2(1H)-one], the IC50 is reported as 100 to 500 nM.
`CC(C)CC(Nc1ccc2c(c1)Sc1cccc(-c3cc(N4CCOCC4)cc(=O)[nH]3)c1S2)[C@H](C)N` (stereo partly drawn) [Example 1-20-4, 6-(7-(((2S)-2-Amino-5-methylhexan-3-yl)amino)thianthren-1-yl)-4-morpholino pyridin-2(1H)-one] gave an IC50 of 500 to 2000 nM.
Work on `Cc1ccc(CN2CCC(Nc3ccc4c(c3)Cc3cccc(-c5cc(N6CCOCC6)cc(=O)[nH]5)c3O4)CC2)nc1` [Example 2-28-22, 6-(7-((1-((5-Methylpyridin-2-yl)methyl)piperidin-4-yl)amino)-9H-xanthen-4-yl)-4-morpholino pyridin-2(1H)-one] yielded an IC50 of 100 to 500 nM.
`CNCc1cccc(C(C)Nc2ccc3c(c2)Sc2cccc(-c4cc(N5CCOCC5)cc(=O)[nH]4)c2S3)n1` (stereo not shown) [Example 1-20-8, 6-(7-((1-(6-((Methylamino)methyl)pyridin-2-yl)ethyl)amino)thianthren-1-yl)-4-morpholino pyridin-2(1H)-one] gave an IC50 of 100 to 500 nM.
`Cc1cccc(C(CO)Nc2ccc3c(c2)Sc2cccc(-c4cc(N5CCOCC5)cc(=O)[nH]4)c2S3)n1` (single isomer, unassigned) [Example 1-12-140-1, 6-(7-((2-hydroxy-1-(6-methylpyridin-2-yl)ethyl)amino)thianthren-1-yl)-4-morpholinopyridin-2(1H)-one] showed an IC50 of 100 to 500 nM.
With `O=c1cc(N2CCOCC2)cc(-c2cccc3c2Oc2ccc(NC4CCN(Cc5cccnc5)CC4)cc2C3)[nH]1` [Example 2-9-2, 4-Morpholino-6-(7-((1-(pyridin-3-ylmethyl)piperidin-4-yl)amino)-9H-xanthen-4-yl)pyridin-2(1H)-one] the IC50 was 100 to 500 nM.
Molecule `Nc1cccc2c1Sc1cccc(-c3cc(N4CCOCC4)cc(=O)[nH]3)c1O2` [Example 4-3, 6-(9-Aminophenoxathiin-4-yl)-4-morpholinopyridin-2(1H)-one] has an IC50 of 100 to 500 nM.
Work on “4-Morpholino-6-(7-((1-(5- (morpholino methyl) pyrimidin-2-yl)ethyl) amino)thianthren-1- yl)pyridin-2(1H)-one [Example 1-12-95]” yielded an IC50 of 100 to 500 nM.
For `COc1cncc(C(C)Nc2ccc3c(c2)Sc2cccc(-c4cc(N5CCOCC5)cc(=O)[nH]4)c2S3)c1` (single isomer, unassigned) [Example 1-12-145-2, 6-(7-((1-(5-methoxypyridin-3-yl)ethyl)amino)thianthren-1-yl)-4-morpholinopyridin-2(1H)-one], the IC50 was under 100 nM.
Work on `Nc1ccc2c(c1)Cc1c(F)ccc(-c3cc(N4CCOCC4)cc(=O)[nH]3)c1O2` [Example 2-43, 6-(7-Amino-1-fluoro-9H-xanthen-4-yl)-4-morpholinopyridin-2(1H)-one] yielded an IC50 of 500 to 2000 nM.
`O=c1cc(N2CCOCC2)cc(-c2cc(F)cc3c2Oc2ccc(NCc4cncc(Cl)c4)cc2C3)[nH]1` [Example 2-48-3, 6-(7-(((5-Chloropyridin-3-yl)methyl)amino)-2-fluoro-9H-xanthen-4-yl)-4-morpholinopyridin-2(1H)-one] gave an IC50 of 100 to 500 nM.
`COc1cnccc1CNc1ccc2c(c1)Sc1cccc(-c3cc(N4CCOCC4)cc(=O)[nH]3)c1O2` [Example 4-4-23, 6-(8-(((3-Methoxypyridin-4-yl)methyl)amino)phenoxathiin-4-yl)-4-morpholino pyridin-2(1H)-one] was tested, and the IC50 was 100 to 500 nM.
Work on `COc1cncc(C(C)Nc2ccc3c(c2)Cc2cccc(-c4nc(N5CCOCC5)cc(=O)[nH]4)c2O3)c1` (stereo not shown) [Example 2-52-4, 2-(7-((1-(5-Methoxypyridin-3-yl)ethyl)amino)-9H-xanthen-4-yl)-6-morpholinopyrimidine-4(3H)-one] yielded an IC50 of 100 to 500 nM.
Work on `Cc1ncsc1CNc1ccc2c(c1)Cc1cccc(-c3cc(N4CCOCC4)cc(=O)[nH]3)c1O2` [Example 2-13-2, 6-(7-(((4-Methylthiazol-5-yl)methyl)amino)-9H-xanthen-4-yl)-4-morpholino pyridin-2(1H)-one] yielded an IC50 of 100 to 500 nM.
With `CN1CCC(Nc2ccc3c(c2)Sc2cccc(-c4cc(N5CCOCC5)cc(=O)[nH]4)c2S3)C1` (stereo not shown) [Example 1-31-1, 6-(7-((1-Methylpyrrolidin-3-yl)amino)thianthren-1-yl)-4-morpholinopyridin-2(1H)-one] the IC50 was 100 to 500 nM.
`COCCNCc1cccc(C(C)Nc2ccc3c(c2)Sc2cccc(-c4cc(N5CCOCC5)cc(=O)[nH]4)c2S3)n1` (stereo not shown) [Example 1-20-9, 6-(7-((1-(6-(((2-Methoxyethyl)amino)methyl)pyridin-2-yl)ethyl)amino)thianthren-1-yl)-4-morpholino pyridin-2 (1H)-one] showed an IC50 of 100 to 500 nM.
Molecule `CNc1ccc(CN2CCC(Nc3ccc4c(c3)Cc3cccc(-c5cc(N6CCOCC6)cc(=O)[nH]5)c3O4)CC2)cn1` [Example 2-28-8, 6-(7-((1-((6-(Methylamino)pyridin-3-yl)methyl)piperidin-4-yl)amino)-9H-xanthen-4-yl)-4-morpholino pyridin-2(1H)-one] has an IC50 of 100 to 500 nM.
With `O=C1CCN1c1cncc(CNc2ccc3c(c2)Cc2cccc(-c4cc(N5CCOCC5)cc(=O)[nH]4)c2O3)c1` [Example 2-2-70, 4-Morpholino-6-(7-(((5-(2-oxoazetidin-1-yl)pyridin-3-yl)methyl)amino)-9H-xanthen-4-yl)pyridin-2(1H)-one] the IC50 was 100 to 500 nM.
`O=c1cc(N2CCOCC2)cc(-c2cccc3c2Oc2ccc(NCc4cnc5c(c4)OCCO5)cc2C3)[nH]1` [Example 2-2-29, 6-(7-(((2,3-Dihydro-[1,4]dioxino[2,3-b]pyridin-7-yl)methyl)amino)-9H-xanthen-4-yl)-4-morpholino pyridin-2 (1H)-one] gave an IC50 of under 100 nM.
`O=c1cc(N2CCOCC2)cc(-c2cccc3c2Oc2ccccc2S3)[nH]1` [Example 4-12, 4-Morpholino-6-(phenoxathiin-4-yl)pyridin-2(1H)-one] showed an IC50 of 500 to 2000 nM.
`O=c1cc(N2CCOCC2)cc(-c2cccc3c2Oc2ccc(NC4CCCN(CCc5ccccc5)C4)cc2S3)[nH]1` (stereo not shown) [Example 4-6-3] showed an IC50 of 100 to 500 nM.
For `O=c1cc(N2CCOCC2)cc(-c2cccc3c2Sc2ccc(N[C@@H]4COC[C@@H]4N4CCOCC4)cc2S3)[nH]1` (relative stereo) [Example 1-61, cis-4-morpholino-6-(7-((4-morpholinotetrahydrofuran-3-yl)amino)thianthren-1-yl)pyridin-2(1 H)-one], the IC50 was under 100 nM.
`Nc1ccc2c(c1)Cc1cccc(-c3cc(N4CCOCC4)cc(=O)[nH]3)c1O2` [Example 2-1-1, 5-6-(7-amino-9H-xanthen-4-yl)-4-morpholinopyridin-2(1H)-one] gave an IC50 of 500 to 2000 nM.
`O=c1cc(N2CCOCC2)cc(-c2cccc3c2Sc2ccc(NC4CCCN(C5CCOCC5)C4)cc2S3)[nH]1` (stereo not shown) [Example 1-24-7, 4-Morpholino-6-(7-((1-(tetrahydro-2H-pyran-4-yl)piperidin-3-yl)amino)thianthren-1-yl)pyridin-2 (1H)-one] showed an IC50 of 100 to 500 nM.
In the case of `O=c1cc(N2CCOCC2)cc(-c2cccc3c2Sc2ccc(NCc4cncs4)cc2S3)[nH]1` [Example 1-12-54, 4-Morpholino-6-(7-((thiazol-5-ylmethyl)amino)thianthren-1-yl)pyridin-2 (1H)-one], the IC50 is reported as 100 to 500 nM.
In the case of `CN(C)c1ccc(CNc2ccc3c(c2)Cc2cccc(-c4cc(N5CCOCC5)cc(=O)[nH]4)c2O3)cn1` [Example 2-2-8, 6-(7-(((6-(Dimethylamino)pyridin-3-yl)methyl)amino)-9H-xanthen-4-yl)-4-morpholino pyridin-2(1H)-one], the IC50 is reported as 100 to 500 nM.

From US9586951B2 (FUJIFILM Corporation, priority 2013, dated 2017)
